Among the data in patent US10428081B2, “EGFR inhibitor, preparation method and use thereof” (Shanghai Hansoh Biomedical Co., Ltd., priority 2014, dated 2019) are IC50 and Selectivity of wild-type/mutant-type values, retold here.

One assay relates to NCI-H1975 cells. In words: Inhibition of NCI-H1975 cell proliferation (CellTiter-Glo). It counts as cell-based. To be noted: for IC50: Homo sapiens, NCI-H1975, 72 h, NCI-H1975 cell proliferation, 72 hours, CellTiter-Glo, read-out: EGFR IC50 (nM) H1975; for Selectivity of wild-type/mutant-type: ratio A431 IC50 / H1975 IC50, cells.
The test system of a further assay is A431 cells. In words: Inhibition of A431 cell proliferation (CellTiter-Glo). It counts as cell-based. To be noted: Homo sapiens, A-431, 72 h, read-out: EGFR IC50 (nM) A431. As for the experimental part:
4. Experiment on the Inhibition of A431 Cell Proliferation
In this experiment, the inhibitory effect of the compounds on A431 cell proliferation was tested by a CellTiter-Glo method, and the half maximal inhibitory concentration (IC50) of the compounds on the activity of cell proliferation was determined.
The culture plate was incubated in the incubator for 16 to 24 hours (37° C., 5% CO2).
2) Different concentrations of the test compound in a gradient dilution were added to the cells in the culture plate. The culture plate was incubated in an incubator for 72 hours (37° C., 5% CO2).
3) 50 to 100 μL of CellTiter-Glo reagent was added to each well. Then the culture plate was shaken for 10 minutes, and left to stand at room temperature for 10 minutes.
4) The chemiluminescence signal values of each plate were determined by a microplate reader.
5) The inhibition rates were calculated according to the chemiluminescence signal values. 6) The IC50 of the compound was obtained by curve fitting according to the inhibition rates at different concentrations.
(In general: Cellular ATP, detected with luciferase, serves as a proxy for viable cell number.)

The target in another assay is wild-type EGFR enzyme (Homo sapiens, UniProt P00533). Briefly: Enzymologic experiment of wild-type (WT) EGFR (TR-FRET). It counts as biochemical. To be noted: ATP 0.1 to 5 uM. The method, boiled down: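 Wild-type EGFR (0.1 to 1 nM final) preincubated with serially diluted compound for 10 minutes at room temperature; reaction stopped with EDTA, then labelled antibody added for 1 hour at room temperature. TR-FRET signal converted to inhibition rates; IC50 from curve fitting across concentrations.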
A general note: In TR-FRET formats the signal depends on donor and acceptor labels being close together.

In assay [1] the target is exon 20 T790M mutant-type EGFR enzyme (Homo sapiens, UniProt P00533, T790M). In words: Enzymologic experiment of T790M mutant-type EGFR (TR-FRET). Type of assay: biochemical. The following applies: for IC50: T790M EGFR enzyme, TR-FRET, ATP 1 to 10 uM; for Selectivity of wild-type/mutant-type: ratio WT IC50 / T790M IC50, enzyme. A digest of the protocol:
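Compound dilutions preincubated 10 min at room temperature; reaction ended with EDTA, then labeled antibody added for 1 h at room temperature. Inhibition rates derived from TR-FRET fluorescence signal, and IC50 obtained by curve fitting across concentrations.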

exon 20 T790M mutant-type EGFR enzyme, sequence (P00533 25-1210 T790M): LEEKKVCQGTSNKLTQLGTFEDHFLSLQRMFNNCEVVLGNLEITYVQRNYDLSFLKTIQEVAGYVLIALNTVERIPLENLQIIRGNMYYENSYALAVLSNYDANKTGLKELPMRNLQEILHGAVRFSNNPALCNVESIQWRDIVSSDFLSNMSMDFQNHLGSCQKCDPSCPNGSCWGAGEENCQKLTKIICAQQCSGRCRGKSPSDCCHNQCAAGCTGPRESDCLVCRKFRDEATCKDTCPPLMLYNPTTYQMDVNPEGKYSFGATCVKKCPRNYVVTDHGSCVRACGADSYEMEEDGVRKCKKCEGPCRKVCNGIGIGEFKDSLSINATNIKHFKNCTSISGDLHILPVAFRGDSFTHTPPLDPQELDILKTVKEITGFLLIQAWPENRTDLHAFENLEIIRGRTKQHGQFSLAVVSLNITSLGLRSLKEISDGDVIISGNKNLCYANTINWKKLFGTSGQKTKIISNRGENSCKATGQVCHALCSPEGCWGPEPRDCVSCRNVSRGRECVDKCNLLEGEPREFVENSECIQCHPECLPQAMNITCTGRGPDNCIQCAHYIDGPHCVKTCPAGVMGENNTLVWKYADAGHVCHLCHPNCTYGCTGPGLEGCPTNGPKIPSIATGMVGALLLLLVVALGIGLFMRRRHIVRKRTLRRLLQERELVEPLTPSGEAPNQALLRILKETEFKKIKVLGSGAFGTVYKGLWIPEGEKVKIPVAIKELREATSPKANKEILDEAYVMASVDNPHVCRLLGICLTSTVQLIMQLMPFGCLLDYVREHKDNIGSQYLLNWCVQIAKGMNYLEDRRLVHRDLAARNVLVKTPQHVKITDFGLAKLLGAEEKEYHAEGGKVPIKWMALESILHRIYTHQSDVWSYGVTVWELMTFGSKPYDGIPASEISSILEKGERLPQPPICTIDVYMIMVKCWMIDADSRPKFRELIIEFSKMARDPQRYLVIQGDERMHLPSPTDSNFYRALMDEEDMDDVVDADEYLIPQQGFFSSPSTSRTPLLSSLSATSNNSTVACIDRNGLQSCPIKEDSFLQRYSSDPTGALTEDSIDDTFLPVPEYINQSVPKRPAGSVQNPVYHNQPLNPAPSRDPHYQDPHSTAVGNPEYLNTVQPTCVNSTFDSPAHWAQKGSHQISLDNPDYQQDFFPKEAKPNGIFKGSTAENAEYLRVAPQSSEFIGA
wild-type EGFR enzyme, sequence (P00533 25-1210): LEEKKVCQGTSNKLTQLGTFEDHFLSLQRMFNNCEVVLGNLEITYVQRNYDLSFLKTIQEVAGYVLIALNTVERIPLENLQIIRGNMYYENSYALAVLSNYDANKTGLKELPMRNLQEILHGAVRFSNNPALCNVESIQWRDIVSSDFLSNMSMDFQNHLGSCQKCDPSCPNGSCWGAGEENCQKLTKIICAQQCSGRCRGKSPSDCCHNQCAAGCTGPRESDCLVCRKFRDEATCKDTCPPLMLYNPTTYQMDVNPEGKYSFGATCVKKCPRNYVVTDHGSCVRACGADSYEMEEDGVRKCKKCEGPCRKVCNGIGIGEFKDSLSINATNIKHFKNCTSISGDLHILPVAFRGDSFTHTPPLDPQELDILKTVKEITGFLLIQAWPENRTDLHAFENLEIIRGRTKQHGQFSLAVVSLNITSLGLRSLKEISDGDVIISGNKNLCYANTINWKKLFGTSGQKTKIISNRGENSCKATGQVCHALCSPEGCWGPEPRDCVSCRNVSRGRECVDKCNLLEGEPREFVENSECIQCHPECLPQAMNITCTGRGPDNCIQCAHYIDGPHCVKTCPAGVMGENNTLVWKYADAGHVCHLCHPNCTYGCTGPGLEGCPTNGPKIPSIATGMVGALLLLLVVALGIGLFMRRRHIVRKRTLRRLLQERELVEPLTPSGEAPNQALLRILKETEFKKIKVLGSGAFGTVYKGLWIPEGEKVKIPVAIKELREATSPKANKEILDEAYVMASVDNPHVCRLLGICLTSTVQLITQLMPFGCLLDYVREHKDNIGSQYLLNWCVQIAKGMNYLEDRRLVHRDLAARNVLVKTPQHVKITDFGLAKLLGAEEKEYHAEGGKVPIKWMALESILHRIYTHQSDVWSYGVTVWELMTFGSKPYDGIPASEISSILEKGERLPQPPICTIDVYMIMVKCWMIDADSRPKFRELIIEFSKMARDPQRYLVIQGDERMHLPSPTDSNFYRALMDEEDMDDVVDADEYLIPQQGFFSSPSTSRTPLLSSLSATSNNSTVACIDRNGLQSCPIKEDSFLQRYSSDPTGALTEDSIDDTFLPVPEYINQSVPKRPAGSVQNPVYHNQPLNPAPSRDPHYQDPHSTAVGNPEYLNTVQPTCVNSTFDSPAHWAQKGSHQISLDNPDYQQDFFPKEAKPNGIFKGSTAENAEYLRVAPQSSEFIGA

Take `C=CC(=O)Nc1cc(Nc2ncc(Cl)c(-c3cn(C)c4cc(OC)ccc34)n2)c(OC)cc1N(C)CCN(C)C` [Example 98, N-(5-((5-chloro-4-(6-methoxy-1-methyl-1H-indol-3-yl)pyrimidin-2-yl)amino)-2-((2-(dimethylamino)ethyl)(methyl)amino)-4-methoxyphenyl)acrylamide]: the IC50 (usually the concentration at which inhibition is half-maximal) with NCI-H1975 cells was found to be 2.92 nM; in the assay on A431 cells, 154 nM; on wild-type EGFR enzyme it was 1 nM; in assay [1], 0.2 nM. Besides, the Selectivity of wild-type/mutant-type with NCI-H1975 cells is reported as 52.71; in assay [1] it was 5.00.

Turning to `C=CC(=O)Nc1cc(Nc2nccc(-n3ncc4cc(C#N)ccc43)n2)c(OC)cc1N(C)CCN(C)C` [Example 50, N-(5-((4-(5-cyano-1H-indazol-1-yl)pyrimidin-2-yl)amino)-2-((2-(dimethylamino)ethyl)(methyl)amino)-4-methoxyphenyl)acrylamide], the IC50 in the assay with NCI-H1975 cells stood at 6.14 nM; in the assay with A431 cells, 503 nM; on wild-type EGFR enzyme, 6.39 nM; in assay [1], 0.66 nM. The Selectivity of wild-type/mutant-type in the assay with NCI-H1975 cells is listed as 81.87; in assay [1], 9.68.

As for `C=CC(=O)Nc1cc(Nc2nccc(-c3cn4c5c(cccc35)CCC4)n2)c(OC)cc1N(C)CCN(C)C` [Example 125, N-(5-((4-(5,6-dihydro-4H-pyrrolo[3,2,1-ij]quinolin-1-yl)pyrimidin-2-yl)amino)-2-((2-(dimethylamino)ethyl)(methyl)amino)-4-methoxyphenyl)acrylamide], the IC50 in the assay on NCI-H1975 cells came to 9.58 nM; with A431 cells it was 385 nM; against wild-type EGFR enzyme, 13 nM; in assay [1], 1.42 nM. Further, the values for the Selectivity of wild-type/mutant-type (in the assay with NCI-H1975 cells; in assay [1]) were 40.18 and 9.15, respectively.

`C=CC(=O)Nc1cc(Nc2nccc(-n3ncc4ccc(OC)cc43)n2)c(OC)cc1N(C)CCN(C)C` [Example 42, N-(2-((2-(dimethylamino)ethyl)(methyl)amino)-4-methoxy-5-((4-(6-methoxy-1H-indazol-1-yl)pyrimidin-2-yl)amino)phenyl)acrylamide]: the IC50 with NCI-H1975 cells worked out at 5 nM; in the assay with A431 cells, 76.3 nM; against wild-type EGFR enzyme, 0.82 nM; in assay [1] it was 0.48 nM. Also, the results for the Selectivity of wild-type/mutant-type (in the assay on NCI-H1975 cells; in assay [1]) were 15.25 and 1.71, respectively.

Take `C=CC(=O)Nc1cc(Nc2nccc(-n3ncc4cc(OCC)ccc43)n2)c(OC)cc1N(C)CCN(C)C` [Example 105, N-(2-((2-(dimethylamino)ethyl)(methyl)amino)-5-((4-(5-ethoxy-1H-indazol-1-yl)pyrimidin-2-yl)amino)-4-methoxyphenyl)acrylamide]: the IC50 with NCI-H1975 cells is 3.12 nM; with A431 cells, 887 nM; against wild-type EGFR enzyme it was 0.62 nM; in assay [1], 0.26 nM. The Selectivity of wild-type/mutant-type with NCI-H1975 cells is listed as 284.29; in assay [1], 2.38.

As to `COc1cc(N(C)CCN(C)C)c(NC(=O)/C=C/CN(C)C)cc1Nc1nccc(-c2cn(C3CC3)c3ccccc23)n1` [Example 122, (E)-N-(5-((4-(1-cyclopropyl-1H-indol-3-yl)pyrimidin-2-yl)amino)-2-((2-(dimethylamino)ethyl)(methyl)amino)-4-methoxyphenyl)-4-(dimethylamino)but-2-enamide], the half-inhibitory concentration (IC50) in the assay with NCI-H1975 cells worked out at 114 nM; with A431 cells it was 890 nM; against wild-type EGFR enzyme it was 8.4 nM; in assay [1], 0.49 nM. For the same compound, the Selectivity of wild-type/mutant-type stood at 7.84 in the assay with NCI-H1975 cells and 17.14 in assay [1].

Take `C=CC(=O)Nc1cc(Nc2nccc(-c3cn(C)c4cc(OC)ccc34)n2)c(OC(F)F)cc1N(C)CCN(C)C` [Example 4, N-(4-(difluoromethoxy)-2-((2-(dimethylamino)ethyl)(methyl)amino)-5-((4-(6-methoxy-1-methyl-1H-indol-3-yl)pyrimidin-2-yl)amino)phenyl)acrylamide]: the IC50 in the assay on NCI-H1975 cells was 10 nM; in the assay with A431 cells, 158 nM; on wild-type EGFR enzyme it was 6.41 nM; in assay [1], 0.39 nM. The Selectivity of wild-type/mutant-type in the assay with NCI-H1975 cells was 15.78; in assay [1] it was 16.3.

Turning to `C=CC(=O)Nc1cc(Nc2ncc(C(F)(F)F)c(-n3nc(C)c4cc(OC)ccc43)n2)c(OC)cc1N(C)CCN(C)C` [Example 107], the IC50 in the assay with NCI-H1975 cells amounted to 2.76 nM; in the assay on A431 cells it was 98.3 nM; on wild-type EGFR enzyme, 28 nM; in assay [1], 0.76 nM. The results for the Selectivity of wild-type/mutant-type (in the assay with NCI-H1975 cells; in assay [1]) were 35.61 and 36.84, respectively.

Consider `C=CC(=O)Nc1cc(Nc2ncc(C(F)(F)F)c(-n3nc(C4CC4)c4cc(OC)ccc43)n2)c(OC)cc1N(C)CCN(C)C` [Example 114, N-(5-((4-(3-cyclopropyl-5-methoxy-1H-indazol-1-yl)-5-(trifluoromethyl)pyrimidin-2-yl)amino)-2-((2-(dimethylamino)ethyl)(methyl)amino)-4-methoxyphenyl)acrylamide], for which the IC50 amounted to 11.6 nM with NCI-H1975 cells, 122 nM with A431 cells, 42 nM against wild-type EGFR enzyme and 2.28 nM in assay [1]. Moreover, the figures for the Selectivity of wild-type/mutant-type (in the assay on NCI-H1975 cells; in assay [1]) were 10.47 and 18.40, respectively.

For the compound `C=CC(=O)Nc1cc(Nc2nccc(-c3cn(C)c4cc(F)c(F)cc34)n2)c(OC)cc1N(C)CCN(C)C` [Example 28, N-(5-((4-(5,6-difluoro-1-methyl-1H-indol-3-yl)pyrimidin-2-yl)amino)-2-((2-(dimethylamino)ethyl)(methyl)amino)-4-methoxyphenyl)acrylamide], the IC50 with NCI-H1975 cells turned out to be 6.4 nM; in the assay with A431 cells, 272 nM; against wild-type EGFR enzyme, 1.89 nM; in assay [1], 1.83 nM. For the same compound, the figures for the Selectivity of wild-type/mutant-type (in the assay with NCI-H1975 cells; in assay [1]) were 42.52 and 1.0, respectively.

Regarding `C=CC(=O)Nc1cc(Nc2nccc(-c3cn(C)c4cc(C#N)ccc34)n2)c(OC(F)F)cc1N(C)CCN(C)C` [Example 9, N-(5-((4-(6-cyano-1-methyl-1H-indol-3-yl)pyrimidin-2-yl)amino)-4-(difluoromethoxy)-2-((2-(dimethylamino)ethyl)(methyl)amino)phenyl)acrylamide], the IC50 with NCI-H1975 cells came out at 4.58 nM; in the assay with A431 cells it was 216 nM; against wild-type EGFR enzyme it was 2.12 nM; in assay [1], 0.39 nM. Also, the Selectivity of wild-type/mutant-type in the assay on NCI-H1975 cells was determined as 47.07; in assay [1], 5.44.

Consider `C=CC(=O)Nc1cc(Nc2nccc(-c3c[nH]c4ccccc34)n2)c(OC(F)F)cc1N(C)CCN(C)C` [Example 8, N-(5-((4-(1H-indol-3-yl)pyrimidin-2-yl)amino)-4-(difluoromethoxy)-2-((2-(dimethylamino)ethyl)(methyl)amino)phenyl)acrylamide], for which the IC50 in the assay with NCI-H1975 cells was 5.21 nM; in the assay with A431 cells it was 56.2 nM; against wild-type EGFR enzyme, 3.64 nM; in assay [1] it was 0.42 nM. The results for the Selectivity of wild-type/mutant-type (in the assay on NCI-H1975 cells; in assay [1]) were 10.8 and 8.8, respectively.

In the case of `C=CC(=O)Nc1cc(Nc2nccc(-n3cnc4ccccc43)n2)c(OC)cc1N(C)CCN(C)C` [Example 120, N-(5-((4-(1H-benzo[d]imidazol-1-yl)pyrimidin-2-yl)amino)-2-((2-(dimethylamino)ethyl)(methyl)amino)-4-methoxyphenyl)acrylamide], the IC50 in the assay on NCI-H1975 cells is 4.91 nM; with A431 cells, 115 nM; against wild-type EGFR enzyme, 3.66 nM; in assay [1], 1.05 nM. In addition, the figures for the Selectivity of wild-type/mutant-type (in the assay on NCI-H1975 cells; in assay [1]) were 23.44 and 3.49, respectively.

For `C=CC(=O)Nc1cc(Nc2nccc(-n3ncc4c(OC)cccc43)n2)c(OC)cc1N(C)CCN(C)C` [Example 41, N-(2-((2-(dimethylamino)ethyl)(methyl)amino)-4-methoxy-5-((4-(4-methoxy-1H-indazol-1-yl)pyrimidin-2-yl)amino)phenyl)acrylamide], the IC50 with NCI-H1975 cells was 5.93 nM; in the assay with A431 cells, 138 nM; against wild-type EGFR enzyme, 2.5 nM; in assay [1] it was 0.51 nM. The Selectivity of wild-type/mutant-type in the assay on NCI-H1975 cells was 23.36; in assay [1] it was 4.90.

Take `C=CC(=O)Nc1cc(Nc2nccc(-c3cn(C)c4c(C5CC5)cccc34)n2)c(OC)cc1N(C)CCN(C)C` [Example 91, N-(5-((4-(7-cyclopropyl-1-methyl-1H-indol-3-yl)pyrimidin-2-yl)amino)-2-((2-(dimethylamino)ethyl)(methyl)amino)-4-methoxyphenyl)acrylamide]: the IC50 stood at 25.9 nM with NCI-H1975 cells, 558 nM in the assay with A431 cells, 14.7 nM against wild-type EGFR enzyme and 2.25 nM in assay [1]. Besides, the Selectivity of wild-type/mutant-type with NCI-H1975 cells is recorded as 21.49; in assay [1] it was 6.54.
